Source: US4464385A, “Treatment of diabetic complications with hydantoins” (Alcon Laboratories, Inc., priority 1982, dated 1984)

Test system: cataracts in rats
Assay: Prevention or retardation of cataracts in galactose-fed rats
Assay type: in vivo, rat
Details: for % of Total Eyes, N (nuclear cataract) / % of Total Eyes, S (snowflake) / Number of Eyes Observed, + (vacuole) / Number of Eyes Observed, - (Normal) / Number of Eyes Observed, N (nuclear cataract) / Number of Eyes Observed, S (snowflake) / Number of Eyes Observed, ± / % of Total Eyes, + (vacuole) / % of Total Eyes, - (Normal): 30% galactose diet, A,C,E 0.0025%, B,D 0.01%
Method in brief: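 Rats given test compound mixed into diet (by % of total feed weight; 0.01% designed to supply 20 mg/kg/day) ad libitum for thirty days after a two-day chow acclimatization, twelve animals per treatment. Eyes examined by handheld ophthalmoscope and/or penlight and each eye graded.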

## dl-spiro-(6-methylthio-chroman-4,4'-imidazolidine)-2',5'-dione
Study Day 14
  % of Total Eyes, N (nuclear cataract): 0%
  % of Total Eyes, S (snowflake): 58.4%
  Number of Eyes Observed, + (vacuole): 10 eyes
  Number of Eyes Observed, - (Normal): 0 eyes
  Number of Eyes Observed, N (nuclear cataract): 0 eyes
  Number of Eyes Observed, S (snowflake): 14 eyes
  Number of Eyes Observed, ±: 0 eyes
Study Day 16
  % of Total Eyes, + (vacuole): 37.5%
  % of Total Eyes, - (Normal): 0%
  % of Total Eyes, N (nuclear cataract): 0%
  % of Total Eyes, S (snowflake): 62.5%
  Number of Eyes Observed, + (vacuole): 9 eyes
  Number of Eyes Observed, - (Normal): 0 eyes
  Number of Eyes Observed, N (nuclear cataract): 0 eyes
  Number of Eyes Observed, S (snowflake): 15 eyes
  Number of Eyes Observed, ±: 0 eyes
Study Day 18
  % of Total Eyes, + (vacuole): 25.0%
  % of Total Eyes, - (Normal): 0%
  % of Total Eyes, N (nuclear cataract): 0%
  % of Total Eyes, S (snowflake): 75.0%
  Number of Eyes Observed, + (vacuole): 6 eyes
  Number of Eyes Observed, - (Normal): 0 eyes
  Number of Eyes Observed, N (nuclear cataract): 0 eyes
  Number of Eyes Observed, S (snowflake): 0 eyes
  Number of Eyes Observed, ±: 0 eyes
Study Day 20
  % of Total Eyes, + (vacuole): 20.8%
  % of Total Eyes, - (Normal): 0%
  % of Total Eyes, N (nuclear cataract): 0%
  % of Total Eyes, S (snowflake): 79.2%
  Number of Eyes Observed, + (vacuole): 5 eyes
  Number of Eyes Observed, - (Normal): 0 eyes
  Number of Eyes Observed, N (nuclear cataract): 0 eyes
  Number of Eyes Observed, S (snowflake): 19 eyes
  Number of Eyes Observed, ±: 0 eyes
Study Day 22
  % of Total Eyes, + (vacuole): 8.3%
  % of Total Eyes, - (Normal): 0%
  % of Total Eyes, N (nuclear cataract): 4.2%
  % of Total Eyes, S (snowflake): 87.5%
  Number of Eyes Observed, + (vacuole): 2 eyes
  Number of Eyes Observed, - (Normal): 0 eyes
  Number of Eyes Observed, N (nuclear cataract): 1 eyes
  Number of Eyes Observed, S (snowflake): 21 eyes
  Number of Eyes Observed, ±: 0 eyes
Study Day 24
  % of Total Eyes, + (vacuole): 4.2%
  % of Total Eyes, - (Normal): 0%
  % of Total Eyes, N (nuclear cataract): 4.2%
  % of Total Eyes, S (snowflake): 91.7%
  Number of Eyes Observed, + (vacuole): 1 eyes
  Number of Eyes Observed, - (Normal): 0 eyes
  Number of Eyes Observed, N (nuclear cataract): 1 eyes
  Number of Eyes Observed, S (snowflake): 22 eyes
  Number of Eyes Observed, ±: 0 eyes
Study Day 26
  % of Total Eyes, + (vacuole): 0%
  % of Total Eyes, - (Normal): 0%
  % of Total Eyes, N (nuclear cataract): 4.2%
  % of Total Eyes, S (snowflake): 95.8%
  Number of Eyes Observed, + (vacuole): 0 eyes
  Number of Eyes Observed, - (Normal): 0 eyes
  Number of Eyes Observed, N (nuclear cataract): 1 eyes
  Number of Eyes Observed, S (snowflake): 23 eyes
  Number of Eyes Observed, ±: 0 eyes
Study Day 28
  % of Total Eyes, + (vacuole): 0%
  % of Total Eyes, - (Normal): 0%
  % of Total Eyes, N (nuclear cataract): 12.5%
  % of Total Eyes, S (snowflake): 87.5%
  Number of Eyes Observed, + (vacuole): 0 eyes
  Number of Eyes Observed, - (Normal): 0 eyes
  Number of Eyes Observed, N (nuclear cataract): 3 eyes
  Number of Eyes Observed, S (snowflake): 21 eyes
  Number of Eyes Observed, ±: 0 eyes
Study Day 30
  % of Total Eyes, + (vacuole): 0%
  % of Total Eyes, - (Normal): 0%
  % of Total Eyes, N (nuclear cataract): 16.7%
  % of Total Eyes, S (snowflake): 83.3%
  Number of Eyes Observed, + (vacuole): 0 eyes
  Number of Eyes Observed, - (Normal): 0 eyes
  Number of Eyes Observed, N (nuclear cataract): 4 eyes
  Number of Eyes Observed, S (snowflake): 20 eyes
  Number of Eyes Observed, ±: 0 eyes
Fold greater
  inhibitory capacity relative to diastereomeric mixture of 6-sulfinyl derivative: 1.5
Methylthio 0.0025%, sulfinyl 0.01% in diet
  time to vacuole formation, 0.0025% methylthio versus 0.01% sulfinyl: not different from each other
